Assay results published in the supplement of paper PMC10307832.

Experiments:
Test in all cases: relative viability (nuclei count vs DMSO), 5 days (fraction); higher = more cells survive
[1] = compound: C1COCCN1C2=NC(=NC3=C2OC4=C3C=CC=N4)C5=CC(=CC=C5)NC(=O)C6=CN=C(C=C6)N + COc1cc2c(Oc3ccc(NC(=O)C4(C(=O)Nc5ccc(F)cc5)CC4)cc3F)ccnc2cc1OCCCN1CCOCC1 [Foretinib] (partner 0.25 µM)
Summary of the method: (§1)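 Relative viability equals treated-well nuclei counts divided by vehicle-well nuclei counts. Counts came from 4× images of lung cancer cell lines grown in 1536-well plates for 5 days after pin-tool dosing on the day after seeding. Dosing used one drug alone or a fixed anchor-drug dose plus five library-drug doses (not always all listed) in √10 steps, and values are medians of duplicate plates.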

[2] = compound: Nc1ccccc1NC(=O)c1ccc(CNC(=O)OCc2cccnc2)cc1 [Entinostat] + CC(=O)Nc1cccc(-n2c(=O)n(C3CC3)c(=O)c3c(Nc4ccc(I)cc4F)n(C)c(=O)c(C)c32)c1 [Trametinib] (partner 0.02 µM)
Summary of the method: as §1

[3] = compound: CN1CCC(CNc2ccc3ncc(-c4cccc(OC(F)(F)F)c4)n3n2)CC1 [SGI-1776] + CC1(C)CCC(c2ccc(Cl)cc2)=C(CN2CCN(c3ccc(C(=O)NS(=O)(=O)c4ccc(N[C@H](CCN5CCOCC5)CSc5ccccc5)c(S(=O)(=O)C(F)(F)F)c4)cc3)CC2)C1 [Navitoclax] (partner 0.5 µM)
Summary of the method: as §1

[4] = compound: CN1CCC(CNc2ccc3ncc(-c4cccc(OC(F)(F)F)c4)n3n2)CC1 [SGI-1776] + Cc1nc(NC(=O)N2CCC[C@H]2C(N)=O)sc1-c1ccnc(C(C)(C)C(F)(F)F)c1 [Alpelisib] (partner 2 µM)
Summary of the method: as §1

Cell Line	relative viability ([1]; first compound 0.02 µM)	relative viability ([1]; first compound 0.06325 µM)	relative viability ([1]; first compound 0.2 µM)	relative viability ([1]; first compound 0.6325 µM)	relative viability ([1]; first compound 2 µM)	relative viability ([2]; first compound 0.02 µM)	relative viability ([2]; first compound 0.06325 µM)	relative viability ([2]; first compound 0.2 µM)	relative viability ([2]; first compound 0.6325 µM)	relative viability ([2]; first compound 2 µM)	relative viability ([3]; first compound 0.08 µM)	relative viability ([3]; first compound 0.8 µM)	relative viability ([3]; first compound 2.53 µM)	relative viability ([3]; first compound 8 µM)	relative viability ([4]; first compound 0.08 µM)	relative viability ([4]; first compound 0.8 µM)	relative viability ([4]; first compound 2.53 µM)	relative viability ([4]; first compound 8 µM)
HCC-366	0.946	0.931	0.913	0.892	0.714	0.42	0.306	0.253	0.218	0.0673	1.06	0.964	1.2	1.09	0.51	0.335	0.372	0.189
HCC-827	1.01	1.06	0.99	1.08	0.97	0.516	0.474	0.406	0.338	0.203	1.05	1.01	1.08	0.99	1.08	0.993	1.06	0.849
HOP-62	1.12	1.2	1.12	1.02	0.568	0.412	0.435	0.392	0.351	0.18	1.09	1.11	1.09	0.967	0.914	0.942	0.979	0.807
IA-LM	0.999	1.38	0.867	0.922	0.326						0.951	0.754	0.941	0.905	0.883	0.977	0.764	0.874
LC-2-ad	0.858	0.984	0.977	1.06	0.9	0.894	0.883	0.83	0.698	0.479	0.463	0.434	0.464	0.257	1.06	1	0.94	0.731
LCLC-97TM1	0.974	0.964	0.931	1.04	0.825	0.233	0.207	0.214	0.152	0.139	0.533	0.528	0.314	0.355	0.195	0.238	0.239	0.22
LCLC-103H	0.872	0.777	0.789	0.643	0.474	0.718	0.605	0.713	0.588	0.561					0.996	0.862	0.939	0.924
LK-2	1.34	1.37	1.35	0.797	0.598	0.778	0.686	0.652	0.447	0.349	0.98	0.828	0.772	0.549	0.93	1.06	0.829	0.793
LOU-NH91	0.946	0.952	0.901	0.925	0.845	0.777	0.771	0.804	0.739	0.674	0.747	0.744	0.698	0.445	0.783	0.691	0.707	0.533
